Reference: the NIST ThermoML archive (doi:10.1016/j.fluid.2013.03.001)

Legend:
[1] = molar heat capacity at constant pressure; conditions: 101.33 kPa, Liquid, Small sample (50 mg) DSC
[2] = 101.33 kPa, Liquid; for viscosity: Concentric cylinders viscometry; for mass density: Vibrating tube method

CCCCn1cc[n+](C)c1.[Cl][Fe-]([Cl])([Cl])[Cl] [1-butyl-3-methylimidazolium tetrachloroferrate]
Conditions | mass density [kg/m3] | molar heat capacity at constant pressure [J/K/mol] | viscosity [mPa·s]
[1], 308.16 K | – | 436.39 | –
[1], 313.16 K | – | 446.09 | –
[1], 318.16 K | – | 446.39 | –
[1], 323.16 K | – | 447.13 | –
[1], 328.22 K | – | 449.63 | –
[1], 333.22 K | – | 451.03 | –
[1], 338.19 K | – | 452.53 | –
[1], 343.18 K | – | 456.2 | –
[1], 348.25 K | – | 457.4 | –
[1], 353.18 K | – | 457.95 | –
[1], 358.25 K | – | 459.31 | –
[1], 363.18 K | – | 460.92 | –
[1], 368.17 K | – | 461.57 | –
[1], 373.21 K | – | 462.88 | –
[1], 378.2 K | – | 463.64 | –
[1], 383.17 K | – | 465.82 | –
[1], 388.2 K | – | 465.66 | –
[1], 393.17 K | – | 466.11 | –
[1], 398.2 K | – | 467.83 | –
[1], 403.2 K | – | 469.12 | –
[1], 408.16 K | – | 469.7 | –
[1], 413.19 K | – | 469.42 | –
[1], 418.19 K | – | 471.44 | –
[1], 423.22 K | – | 470.84 | –
[2], 278.15 K | – | – | 103.3
[2], 283.15 K | – | – | 79.5
[2], 288.15 K | – | – | 62.6
[2], 293.15 K | 1370 | – | 50.2
[2], 294.15 K | 1369.2 | – | –
[2], 295.15 K | 1368.3 | – | –
[2], 296.15 K | 1367.5 | – | –
[2], 297.15 K | 1366.7 | – | –
[2], 298.15 K | 1365.8 | – | 41
[2], 299.15 K | 1365 | – | –
[2], 300.15 K | 1364.2 | – | –
[2], 301.15 K | 1363.3 | – | –
[2], 302.15 K | 1362.5 | – | –
[2], 303.15 K | 1361.7 | – | 33.9
[2], 304.15 K | 1360.9 | – | –
[2], 305.15 K | 1360.1 | – | –
[2], 306.15 K | 1359.2 | – | –
[2], 307.15 K | 1358.4 | – | –
[2], 308.15 K | 1357.6 | – | 28.5
[2], 309.15 K | 1356.8 | – | –
[2], 310.15 K | 1356 | – | –
[2], 311.15 K | 1355.1 | – | –
[2], 312.15 K | 1354.3 | – | –
[2], 313.15 K | 1353.5 | – | 24.2
[2], 314.15 K | 1352.7 | – | –
[2], 315.15 K | 1351.9 | – | –
[2], 316.15 K | 1351.1 | – | –
[2], 317.15 K | 1350.3 | – | –
[2], 318.15 K | 1349.5 | – | 20.8
[2], 319.15 K | 1348.7 | – | –
[2], 320.15 K | 1347.8 | – | –
[2], 321.15 K | 1347 | – | –
[2], 322.15 K | 1346.2 | – | –
[2], 323.15 K | 1345.4 | – | 18.1
[2], 324.15 K | 1344.6 | – | –
[2], 325.15 K | 1343.8 | – | –
[2], 326.15 K | 1343 | – | –
[2], 327.15 K | 1342.2 | – | –
[2], 328.15 K | 1341.4 | – | 15.8
[2], 329.15 K | 1340.6 | – | –
[2], 330.15 K | 1339.8 | – | –
[2], 331.15 K | 1339 | – | –
[2], 332.15 K | 1338.2 | – | –
[2], 333.15 K | 1337.4 | – | 13.9
[2], 334.15 K | 1336.6 | – | –
[2], 335.15 K | 1335.9 | – | –
[2], 336.15 K | 1335.1 | – | –
[2], 337.15 K | 1334.3 | – | –
[2], 338.15 K | 1333.5 | – | 12.4
[2], 339.15 K | 1332.7 | – | –
[2], 340.15 K | 1331.9 | – | –
[2], 341.15 K | 1331.1 | – | –
[2], 342.15 K | 1330.3 | – | –
[2], 343.15 K | 1329.5 | – | 11.1
[2], 344.15 K | 1328.7 | – | –
[2], 345.15 K | 1328 | – | –
[2], 346.15 K | 1327.2 | – | –
[2], 347.15 K | 1326.4 | – | –
[2], 348.15 K | 1325.6 | – | 10
[2], 349.15 K | 1324.8 | – | –
[2], 350.15 K | 1324 | – | –
[2], 351.15 K | 1323.3 | – | –
[2], 352.15 K | 1322.5 | – | –
[2], 353.15 K | 1321.7 | – | 9
[2], 354.15 K | 1320.9 | – | –
[2], 355.15 K | 1320.1 | – | –
[2], 356.15 K | 1319.4 | – | –
[2], 357.15 K | 1318.6 | – | –
[2], 358.15 K | 1317.8 | – | 8.2
[2], 359.15 K | 1317 | – | –
[2], 360.15 K | 1316.3 | – | –
[2], 361.15 K | 1315.5 | – | –
[2], 362.15 K | 1314.7 | – | –
[2], 363.15 K | 1313.9 | – | 7.5
[2], 368.15 K | – | – | 6.9
[2], 373.15 K | – | – | 6.3
